Patent US7718190B2, “Self forming, thermodynamically stable liposomes and their applications” (priority 2000, dated 2010)
Values belong to the compound of their own block, whether it stands above or below them.

Legend:
[1] = Dissolution of compounds in PEG-12 Glyceryl Dioleate; type: physicochemical; conditions: for Dissolution in PEG-12 Glyceryl Dioleate (observation): before addition of water
Protocol: It will be appreciated that, while liposomes form spontaneously at the temperature of formation, cooling of liposomes after formation results in liposomes in trapped kinetic states. To minimize distortions in liposome structure upon such cooling, sterols such as cholesterol may be mixed with the lipid before liposome formation. It has been observed that cholesterol may be dissolved in PEG-12 GDO at up to about 10 percent by weight.
Methotrexate (Sigma) was dissolved in PEG-12 Glyceryl Dioleate and gently mixed for about 5 minutes. […] Deionized water was slowly added to the solution and gently mixed. The resultant mixture was a yellow, opaque solution.
Tretinoin (all-trans retinoic acid), 6 mg, was dissolved in 500 ul of PEG-12 Glyceryl Dioleate. […] Distilled water, 4.5 ml, was added to the mixture and gently mixed. This yielded a concentration of […]. […] This solution can easily be incorporated into a cream, gel or lotion dosage form.

[2] = Spontaneous liposome formation of single lipids mixed with aqueous solution; type: physicochemical
Protocol: Lipids were tested at 2 weight percent in aqueous solution. Note that GDL means glycerol dilaurate, GDO means glycerol dioleate, GDM means glycerol dimyristate, GDP means glycerol dipalmitate, and GDS means glycerol distearate. For each lipid, the number after “PEG” indicates the numbers of C2H4O subunits in the PEG chain. The unsaturated dioleate lipids have similar packing parameters to the saturated dimyristate lipids.
Single lipids were tested for their ability to spontaneously form liposomes when mixed with an aqueous solution. PEG-12 GDO was obtained from Global 7 (New Jersey). All other lipids were synthesized for the experiment. For each experiment, water and lipid were separately equilibrated at the appropriate temperature. Two weight percent lipid was added to the aqueous solution, and the solution was analyzed for the presence of liposomes by optical light microscopy, cryo TEM, freeze fracture TEM, or hot stage microscopy.

Dissolution in PEG-12 Glyceryl Dioleate (observation) [1]: clear solution
Compound: CN(Cc1cnc2nc(N)nc(N)c2n1)c1ccc(C(=O)N[C@@H](CCC(=O)O)C(=O)O)cc1 [Methotrexate]

Dissolution in PEG-12 Glyceryl Dioleate (observation) [1]: Dissolution was complete
Compound: CC1=C(/C=C/C(C)=C/C=C/C(C)=C/C(=O)O)C(C)(C)CCC1 [Tretinoin]

Amount dissolved in PEG-12 GDO ([1]; in PEG-12 GDO): up to 10 percent by weight
Compound: CC(C)CCC[C@@H](C)[C@H]1CC[C@H]2[C@@H]3CC=C4C[C@@H](O)CC[C@]4(C)[C@H]3CC[C@]12C [cholesterol]

Spontaneous Liposomes at 20° C. ([2]; 2 weight percent lipid in aqueous solution, 20° C.): YES | Spontaneous Liposomes at 37° C. ([2]; 2 weight percent lipid in aqueous solution, 37° C.): YES | Spontaneous Liposomes at 60° C. ([2]; 2 weight percent lipid in aqueous solution, 60° C.): YES
Compound: PEG-12 Glyceryl Dioleate [PEG-12 GDO]
Spontaneous liposome formation ([2]; all temperatures tested (20, 37, 60° C.)): spontaneously forms liposomes at all temperatures tested
